From paper PMC4996523, “Biophysical and Pharmacological Characterization of Nav1.9 Voltage Dependent Sodium Channels Stably Expressed in HEK-293 Cells” (PLoS ONE, 2016) come the findings set out here.

What all share (type): cell-based
The target in assay [1] is T1, Human Nav1.9 (Homo sapiens, UniProt Q9UI33).
T1 construct: expressed in transfected cells; host or cells: HEK-293 stably expressing human β1/β2
Description: PatchXpress whole-cell voltage clamp, inhibition of human Nav1.9 (+β1/β2) currents in HEK-293 cells. The arrangement: key to Activity on human Nav1.9 at single concentration: NA = not active. Conditions: for Increase in potency at the most depolarized membrane potential: -90 mV vs -140 mV (resting to half-inactivated channels).

The target in assay [2] is T2, Rat Nav1.9 (Rattus norvegicus, UniProt O88457).
T2 construct: expressed in transfected cells; host or cells: HEK-293-rat β1/β2
Description: PatchXpress whole-cell voltage clamp, inhibition of rat Nav1.9 (+rat β1/β2) in HEK-293 cells.

Assay [3] has as its target T3, Nav1.9 K799N (Homo sapiens, UniProt Q9UI33, K799N).
T3 construct: expressed in transfected cells; host or cells: HEK-293-β1/β2
As to the kind of experiment: PatchXpress whole-cell voltage clamp, inhibition of the human Nav1.9 K799N mutant in HEK-293 cells. To be noted: for pIC50: protocol of Fig 2.

In assay [4] the target is T4, Mouse Nav1.9 (Mus musculus, UniProt Q9R053).
T4 construct: expressed in transfected cells; host or cells: HEK-293-mouse β1/β2
As to the kind of experiment: PatchXpress whole-cell voltage clamp, inhibition of mouse Nav1.9 (+mouse β1/β2) in HEK-293 cells.

The target in assay [5] is Human Nav1.8 (Homo sapiens, UniProt Q9Y5Y9). Description: Whole-cell voltage clamp, inhibition of human Nav1.8. Conditions: ~50% inactivated.
Assay [6] deals with T5, Human Nav1.9 F1592A/Y1599A (Homo sapiens, UniProt Q9UI33, F1592A/Y1599A).
T5 construct: expressed in transfected cells; host or cells: HEK-293-β1/β2
T5 sequence (Q9UI33 whole entry F1592A/Y1599A): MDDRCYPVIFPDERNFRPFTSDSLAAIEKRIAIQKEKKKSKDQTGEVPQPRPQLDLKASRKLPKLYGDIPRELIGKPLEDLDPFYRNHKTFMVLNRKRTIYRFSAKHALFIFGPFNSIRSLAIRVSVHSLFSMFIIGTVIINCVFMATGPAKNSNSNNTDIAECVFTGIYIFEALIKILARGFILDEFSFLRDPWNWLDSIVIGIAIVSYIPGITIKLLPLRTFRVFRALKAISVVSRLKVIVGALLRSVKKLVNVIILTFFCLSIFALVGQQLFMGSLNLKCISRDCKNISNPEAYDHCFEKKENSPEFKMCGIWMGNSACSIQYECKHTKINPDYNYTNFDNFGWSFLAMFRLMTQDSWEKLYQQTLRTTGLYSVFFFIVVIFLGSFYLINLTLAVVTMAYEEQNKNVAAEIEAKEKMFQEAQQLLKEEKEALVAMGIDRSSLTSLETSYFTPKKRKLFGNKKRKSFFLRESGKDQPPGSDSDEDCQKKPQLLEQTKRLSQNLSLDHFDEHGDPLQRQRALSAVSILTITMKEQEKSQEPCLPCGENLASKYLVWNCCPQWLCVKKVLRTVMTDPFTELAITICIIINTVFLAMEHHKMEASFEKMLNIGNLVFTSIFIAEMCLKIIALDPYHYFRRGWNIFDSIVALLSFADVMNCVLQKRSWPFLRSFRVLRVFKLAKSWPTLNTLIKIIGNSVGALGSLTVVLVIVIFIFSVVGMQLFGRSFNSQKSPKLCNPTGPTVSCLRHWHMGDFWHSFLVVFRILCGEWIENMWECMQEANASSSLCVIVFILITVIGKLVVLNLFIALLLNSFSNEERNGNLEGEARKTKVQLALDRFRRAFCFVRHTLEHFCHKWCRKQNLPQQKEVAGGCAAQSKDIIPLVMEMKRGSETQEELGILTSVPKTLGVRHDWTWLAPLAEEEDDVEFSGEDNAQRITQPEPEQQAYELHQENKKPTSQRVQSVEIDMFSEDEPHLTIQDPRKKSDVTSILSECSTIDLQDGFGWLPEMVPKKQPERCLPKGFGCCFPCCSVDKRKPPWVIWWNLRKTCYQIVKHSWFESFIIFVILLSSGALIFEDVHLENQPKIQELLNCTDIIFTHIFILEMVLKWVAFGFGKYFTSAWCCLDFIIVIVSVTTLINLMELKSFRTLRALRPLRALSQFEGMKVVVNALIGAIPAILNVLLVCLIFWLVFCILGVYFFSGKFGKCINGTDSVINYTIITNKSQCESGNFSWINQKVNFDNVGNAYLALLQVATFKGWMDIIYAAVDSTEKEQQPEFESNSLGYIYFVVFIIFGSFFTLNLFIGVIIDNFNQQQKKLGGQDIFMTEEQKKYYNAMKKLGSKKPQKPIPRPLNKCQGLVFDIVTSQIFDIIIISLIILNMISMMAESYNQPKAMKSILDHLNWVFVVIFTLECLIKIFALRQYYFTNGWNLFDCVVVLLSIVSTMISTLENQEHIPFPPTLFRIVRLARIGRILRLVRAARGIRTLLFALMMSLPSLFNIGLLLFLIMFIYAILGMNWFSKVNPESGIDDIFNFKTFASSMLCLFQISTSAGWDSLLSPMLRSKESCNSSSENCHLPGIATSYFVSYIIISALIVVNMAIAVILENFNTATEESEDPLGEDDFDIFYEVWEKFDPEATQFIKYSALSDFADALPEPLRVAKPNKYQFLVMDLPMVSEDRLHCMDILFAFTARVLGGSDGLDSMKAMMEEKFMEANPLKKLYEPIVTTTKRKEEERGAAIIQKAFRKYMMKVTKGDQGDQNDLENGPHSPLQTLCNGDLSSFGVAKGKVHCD
T5 sequence (Q07699 19-218 partner): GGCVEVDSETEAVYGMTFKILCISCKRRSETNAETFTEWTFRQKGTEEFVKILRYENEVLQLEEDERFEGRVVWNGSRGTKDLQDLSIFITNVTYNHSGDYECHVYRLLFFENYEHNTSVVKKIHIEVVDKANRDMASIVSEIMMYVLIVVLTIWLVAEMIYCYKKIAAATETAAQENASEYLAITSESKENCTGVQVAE
As to the kind of experiment: PatchXpress whole-cell voltage clamp, inhibition of the human Nav1.9 F1592A/Y1599A local anesthetic site mutant in HEK-293 cells. To be noted: for pIC50: read-out: IC50 for inhibition of human Nav1.9 F1592A/Y1599A (LAM).

Assay [7] deals with T6, Nav1.7 N945K (Homo sapiens, UniProt Q15858, N956K).
T6 construct: expressed in transfected cells; host or cells: HEK-293-β1/β2
T6 sequence (Q15858 1-1977 isoform Q15858-3 N945K): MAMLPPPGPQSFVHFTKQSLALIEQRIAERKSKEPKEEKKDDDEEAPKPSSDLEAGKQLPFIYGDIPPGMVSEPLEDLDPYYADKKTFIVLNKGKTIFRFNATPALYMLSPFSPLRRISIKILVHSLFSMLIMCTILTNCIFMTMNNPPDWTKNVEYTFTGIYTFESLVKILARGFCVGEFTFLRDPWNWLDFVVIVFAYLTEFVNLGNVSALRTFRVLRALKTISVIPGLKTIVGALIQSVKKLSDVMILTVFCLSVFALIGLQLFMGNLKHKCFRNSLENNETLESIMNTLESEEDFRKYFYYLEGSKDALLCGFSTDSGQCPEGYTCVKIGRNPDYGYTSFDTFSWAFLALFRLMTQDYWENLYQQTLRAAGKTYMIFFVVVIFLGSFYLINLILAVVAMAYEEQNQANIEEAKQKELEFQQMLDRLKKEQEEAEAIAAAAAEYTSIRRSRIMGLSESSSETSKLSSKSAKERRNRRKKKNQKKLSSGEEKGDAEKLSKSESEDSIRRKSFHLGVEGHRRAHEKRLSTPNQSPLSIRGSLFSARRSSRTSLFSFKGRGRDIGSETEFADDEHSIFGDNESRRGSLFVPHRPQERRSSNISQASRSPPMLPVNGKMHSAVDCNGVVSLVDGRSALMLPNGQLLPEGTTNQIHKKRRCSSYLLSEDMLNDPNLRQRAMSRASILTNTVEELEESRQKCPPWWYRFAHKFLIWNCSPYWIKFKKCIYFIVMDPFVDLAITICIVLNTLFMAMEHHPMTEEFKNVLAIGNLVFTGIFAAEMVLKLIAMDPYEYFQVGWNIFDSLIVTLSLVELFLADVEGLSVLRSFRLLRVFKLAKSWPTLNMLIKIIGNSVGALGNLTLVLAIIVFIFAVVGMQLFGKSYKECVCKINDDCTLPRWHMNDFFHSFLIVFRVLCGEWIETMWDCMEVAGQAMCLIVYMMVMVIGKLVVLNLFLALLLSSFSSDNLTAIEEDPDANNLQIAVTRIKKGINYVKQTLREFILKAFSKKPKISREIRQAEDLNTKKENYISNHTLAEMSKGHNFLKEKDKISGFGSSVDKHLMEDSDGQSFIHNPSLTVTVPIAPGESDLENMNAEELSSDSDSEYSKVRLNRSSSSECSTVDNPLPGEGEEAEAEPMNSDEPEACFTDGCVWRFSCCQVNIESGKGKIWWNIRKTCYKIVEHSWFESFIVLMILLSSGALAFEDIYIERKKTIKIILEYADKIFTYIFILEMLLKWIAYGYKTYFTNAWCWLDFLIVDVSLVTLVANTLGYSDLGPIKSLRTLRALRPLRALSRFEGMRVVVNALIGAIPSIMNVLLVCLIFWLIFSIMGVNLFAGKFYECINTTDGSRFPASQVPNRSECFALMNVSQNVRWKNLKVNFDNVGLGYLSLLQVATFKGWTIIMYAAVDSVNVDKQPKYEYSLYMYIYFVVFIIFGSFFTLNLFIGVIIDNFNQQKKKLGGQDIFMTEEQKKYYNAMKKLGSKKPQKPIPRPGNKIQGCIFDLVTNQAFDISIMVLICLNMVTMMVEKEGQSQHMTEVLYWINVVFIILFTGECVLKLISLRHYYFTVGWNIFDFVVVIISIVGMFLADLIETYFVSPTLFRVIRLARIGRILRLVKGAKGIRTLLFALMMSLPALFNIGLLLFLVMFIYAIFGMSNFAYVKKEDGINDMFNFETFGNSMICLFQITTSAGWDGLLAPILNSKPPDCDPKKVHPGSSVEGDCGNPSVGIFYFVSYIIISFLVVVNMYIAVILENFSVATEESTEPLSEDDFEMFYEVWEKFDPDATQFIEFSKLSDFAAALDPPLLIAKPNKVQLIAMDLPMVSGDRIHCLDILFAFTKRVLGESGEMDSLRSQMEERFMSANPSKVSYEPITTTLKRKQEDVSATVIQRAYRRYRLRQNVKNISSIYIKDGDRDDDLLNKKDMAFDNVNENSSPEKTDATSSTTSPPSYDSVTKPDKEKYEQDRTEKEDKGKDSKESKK
T6 sequence (Q07699 19-218 partner): as the sequence (Q07699 19-218 partner) above
T6 sequence (O60939 30-215 partner): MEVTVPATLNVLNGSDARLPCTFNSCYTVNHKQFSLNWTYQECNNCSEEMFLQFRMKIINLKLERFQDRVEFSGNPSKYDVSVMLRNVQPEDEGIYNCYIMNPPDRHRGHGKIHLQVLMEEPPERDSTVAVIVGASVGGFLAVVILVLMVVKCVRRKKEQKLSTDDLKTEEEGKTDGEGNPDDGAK
As to the kind of experiment: PatchXpress whole-cell voltage clamp, inhibition of the human Nav1.7 N945K mutant in HEK-293 cells.

In assay [8] the target is T7, Human Nav1.7 (Homo sapiens, UniProt Q15858).
T7 construct: expressed in transfected cells; host or cells: HEK-293-β1/β2
T7 sequence (Q15858 1-1977 isoform Q15858-3): as the sequence (Q15858 1-1977 isoform Q15858-3 N945K) above, with K945N counted along it
T7 sequence (Q07699 19-218 partner): as the sequence (Q07699 19-218 partner) above
T7 sequence (O60939 30-215 partner): as the sequence (O60939 30-215 partner) above
As to the kind of experiment: PatchXpress whole-cell voltage clamp, inhibition of human Nav1.7 in HEK-293 cells.

The mark [9] stands for this setting: holding potential -120 mV (~25% inactivation), 40 ms step to -40 mV every 20 s, HEK-293 + β1/β2, 500 μM GTP-γ-S in pipette, read-out: IC50 for inhibition of human Nav1.9.
Where [10] appears, read: Nav1.9 F1592A/Y1599A vs Nav1.9 WT.

pIC50: −log10 of the molar value. Where “and” joins values, the source holds several entries; their conditions need not be identical. Equal values may be shown once. Entries after “also recorded” stand apart in the source; their conditions may differ. Read-outs that look alike come from different tables or passages of the source.

T3 sequence (Q9UI33 whole entry K799N): as the sequence (Q9UI33 whole entry F1592A/Y1599A) above, with K799N, A1592F, A1599Y counted along it
T3 sequence (Q07699 19-218 partner): as the sequence (Q07699 19-218 partner) above
T1 sequence (Q9UI33 whole entry): as the sequence (Q9UI33 whole entry F1592A/Y1599A) above, with A1592F, A1599Y counted along it
T1 sequence (Q07699 19-218 partner): as the sequence (Q07699 19-218 partner) above

With `COCC(=O)O[C@]1(CCN(C)CCCc2nc3ccccc3[nH]2)CCc2cc(F)ccc2[C@@H]1C(C)C` [Mibefradil], in assay [1] (10 μM), the “Activity on human Nav1.9 at single concentration” value (from here on “Activity”) is given as “NA @ 10 μM”.

As to `CCCCN1CCCCC1C(=O)Nc1c(C)cccc1C` (centres unmarked) [Bupivacaine], the pIC50 in assay [1] (setting [9]) is 3.73.

Consider `CCCCNc1ccc(C(=O)OCCN(C)C)cc1` [Tetracaine], for which the pIC50 in assay [2] was 5.12; in assay [3], 4.99 and 5.00; in assay [4], 4.92; in assay [5], 6.52; in assay [6] (same protocol as Nav1.9 WT), 3.75; in assay [1] (holding potential -90 mV, read-out: IC50 for inhibition of Nav1.9 at holding potential -90 mV), 4.77. The pIC50 in assay [1] (holding potential -100 mV, read-out: IC50 for inhibition of Nav1.9 at holding potential -100 mV) is 4.66; in assay [1] (setting [9]) it was 4.50 and 4.49; in assay [1] (holding potential -120 mV, Fig 2B holding potential series, read-out: IC50 for inhibition of Nav1.9 at holding potential -120 mV) it was 4.51; in assay [1] (holding potential -140 mV, read-out: IC50 for inhibition of Nav1.9 at holding potential -140 mV), 4.27. Also, in assay [3] (Nav1.9 K799N vs Nav1.9 WT), the “Increase in potency by the K799N mutation” value is 3 fold. In assay [7] (Nav1.7 N945K vs Nav1.7 WT), the “Decrease in sensitivity by the N945K mutation” value is given as 3 fold. Besides, the “Increase in potency at the most depolarized membrane potential” value in assay [1] is around 3 fold; in assay [1] (listed as tetracaine), “no more than 3 fold”.

As for `O=C(Nc1ccc(S(=O)(=O)Nc2nccs2)cc1)C(c1ccccc1)c1ccccc1` [ICA-121431], the “Activity” value in assay [1] (10 μM) is recorded as “NA @ 10 μM”.

Turning to `COc1cc(NC(=O)c2ccc(-c3ccc(Cl)cc3)o2)cc(OC)c1` [A-803467], the “Inhibition of human Nav1.9 at single concentration” value in assay [1] (10 μM) worked out at 30% @ 10 μM.

With `Cc1cccc(C)c1OCC(C)N` (centres unmarked) [Mexiletine], the pIC50 in assay [5] was 4.74; in assay [6] (same protocol as Nav1.9 WT), 3.08; in assay [1] (setting [9]), 3.57. Further, in assay [6] (setting [10]), the “Effect of the F1592A/Y1599A mutation on Nav1.9 inhibition” value (“Effect … on Nav1.9 inhibition” below) is “reduced”.

For `CCOC(=O)c1ccc(N)cc1` [Benzocaine], the “Effect of the K799N mutation on potency” value in assay [3] (Nav1.9 K799N vs Nav1.9 WT) is “unaffected”. In addition, the pIC50 in assay [3] (in figure) was 3.52; in assay [8] (in figure, read-out: IC50 for inhibition of Nav1.7 WT) it was 3.89; in assay [8] (wild type, ~50% inactivated, read-out: IC50 for inhibition of human Nav1.7), 3.88; in assay [6] (in figure) it was 2.74; in assay [6] (same protocol as Nav1.9 WT), 2.76; in assay [7] (in figure) it was 3.74. Also, the pIC50 was 3.45 in assay [1] (setting [9]) and 3.40 in assay [1] (in figure, holding potential -120 mV, read-out: IC50 for inhibition of human Nav1.9 WT). The “Effect … on Nav1.9 inhibition” value in assay [6] (setting [10]) is “reduced”. Moreover, the “Reduction in potency by the F1592A/Y1599A mutation” value in assay [6] (setting [10]) worked out at 5 fold. Moreover, the “Effect of the N945K mutation on sensitivity” value in assay [7] (Nav1.7 N945K vs Nav1.7 WT) is on record as “no shift; also recorded: unchanged”.

On to `COCCOC(=O)C1=C(C)NC(C)=C(C(=O)OC(C)C)C1c1cccc([N+](=O)[O-])c1` (centres unmarked) [Nimodipine], for which, in assay [1] (setting [9]), the pIC50 was 4.48.

As for `O=C(NCC1CCCCN1)c1cc(OCC(F)(F)F)ccc1OCC(F)(F)F` (centres unmarked) [Flecainide], the pIC50 in assay [1] (setting [9]) was 3.61.

Turning to `Nc1nnc(-c2cccc(Cl)c2Cl)c(N)n1` [Lamotrigine], the pIC50 in assay [1] (setting [9]) is 3.70.

Consider `CCN(CC)CC(=O)Nc1c(C)cccc1C` [Lidocaine], for which the “Effect … on Nav1.9 inhibition” value in assay [6] was “reduced”. Also, the values for the pIC50 in assay [6] (same protocol as Nav1.9 WT) and in assay [1] (setting [9]) were 2.26 and 3.45, respectively.

Take `CC(=O)Nc1cccc(Nc2ncnc(N3CCC(OCc4ccc(OC(F)(F)F)cc4)CC3)n2)c1C` [TC-N 1752]: the “Decrease in potency by the K799N mutation” value in assay [3] (Nav1.9 K799N vs Nav1.9 WT) is 5.6 fold and ~ 6 fold. The “Effect … on Nav1.9 inhibition” value in assay [6] (setting [10]) is on record as “essentially abolished”.

Take `NC1=N[C@H](O)[C@H]2[C@H]3O[C@]4(O)O[C@@H]([C@@H](O)[C@@]2(N1)[C@@H]4O)[C@]3(O)CO` [TTX, tetrodotoxin]: in assay [1], the “Activity” value is reported as “NA @ 10 μM” and the “Sensitivity of peak inward Nav1.9 current to inhibition” value is recorded as “insensitive”.

For the compound `[Cl][Cd][Cl]` [CdCl2], in assay [1] (100 μM), the “Activity” value is “NA @ 100 μM”.

For the compound `CN(C)CCC=C1c2ccccc2CCc2ccccc21` [Amitriptyline], the figures for the pIC50 in assay [6] (same protocol as Nav1.9 WT) and in assay [1] (setting [9]) were 3.98 and 4.54, respectively.
